The values that follow come from paper PMC6862080, “Blood Compatibility—An Important but Often Forgotten Aspect of the Characterization of Antimicrobial Peptides for Clinical Application” (International Journal of Molecular Sciences, 2019).

Peptide text beside a SMILES is read from it. * marks the point of attachment. Myristoyl = CCCCCCCCCCCCCC(=O)*; Lauroyl = CCCCCCCCCCCC(=O)*; Octanoyl = CCCCCCCC(=O)*

In one series the test system is LPS from P. aeruginosa. As to the kind of experiment: Endotoxin inactivation in human serum, chromogenic LAL test (P. aeruginosa LPS). In kind it is biochemical. Particulars: 500 ng/mL peptide, n = 3; for Reduction of the endotoxin activity in serum vs positive control (in words): 5 ng/mL P. aeruginosa LPS. Here is the method: The LPS neutralization study in serum was conducted using a chromogenic Limulus Amebocyte Lysate (LAL) test (Charles River Laboratories, MA, USA). The LAL test is the most established method for quantifying LPS. This method uses amebocyte lysate from Limulus polyphemus, wherein the presence of LPS triggers a defense mechanism that induces coagulation. The LAL test is used successfully for detection of LPS in a wide variety of industrial, pharmaceutical, and research applications, such as water supplies, parenteral fluids, drugs for intravenous administration, and certain biologic fluids (e.g., cerebrospinal fluid). Therefore, serum, which was obtained from freshly drawn blood, was spiked with 500 ng/mL AMPs, PMB or LL-37 before adding 5 ng/mL LPS from E. coli or P. aeruginosa. As positive and negative controls, native serum with and without LPS was used, respectively. Endotoxin activity was measured using the LAL assay according to the manufacturer’s specifications.

The next series concerns E. coli (ATCC 11303). As to the kind of experiment: microbe, parasite or virus in culture. In kind it is cell-based. The note with it: ATCC 11303, pH 7.4.
The next series concerns S. aureus (ATCC 12600). As to the kind of experiment: microbe, parasite or virus in culture. In kind it is cell-based. Particulars: ATCC 12600, pH 7.4.
For series [1], the system named is erythrocyte membranes. As to the kind of experiment: Hemolysis in whole blood (Kahn method). It is filed as cell-based, human. Here is the method: (§1) Hemolysis was tested with fresh citrate anticoagulated blood from healthy volunteers as well as with blood cells which were suspended in phosphate buffered saline (10 mM pH 7.4). Afterwards, 100 μL AMP solution was added to 500 μL blood to finally achieve AMP concentrations of 8, 32, and 128 μg/mL. As the negative and positive control, 100 μL PBS buffer and 100 μL 12% Triton-X buffer was added to 500 μL blood, respectively. After incubation on an orbital shaker for 60 min at 37 °C, the cells were removed by centrifugation and 100 μL of the supernatant were transferred to a 96 well microplate for hemolysis measurement. The hemolysis was calculated from the extinction at the wavelengths 562, 578, and 598 nm with a Synergy 2 microplate reader (BioTek, Winooski, VT, USA) according to the method published by Kahn.

The test system of series [2] is erythrocyte membranes. As to the kind of experiment: Hemolysis in RBC suspended in PBS (Kahn method). In kind it is cell-based, human. Particulars: pH 7.4. As to the method:
as §1

The test system of a further series is plasmatic coagulation. As to the kind of experiment: Clotting batch test in citrate plasma. It is filed as biochemical, human. Here is the method: Since the acylated LF11-322 peptides cause plasmatic coagulation of citrate anticoagulated plasma, separate clotting experiments were performed with this peptide group. The aim was to check whether the coagulation activation is dependent on the AMP concentration and on the acyl chain length. […] Plasma without additives served as the negative control, whereas plasma spiked with CaCl2/MgCl2 (500/250 mM) solution to restore the physiological calcium and magnesium level in plasma was used as the positive control. Incubation was performed at 37 °C for 60 min. […] In order to ensure that the measured turbidity of the plasma is caused by fibrin formation, the fibrinogen and D-Dimer concentrations were additionally determined. During plasmatic clotting, the fibrinogen level decreases and the D-Dimer level in serum increases. Both were analyzed on a Sysmex CA560 with the corresponding reagents (Siemens Healthineers, Erlangen, Germany).

As to `CCCCCCCCCCCC(=O)N[C@@H](Cc1ccccc1)C(=O)N[C@@H](Cc1c[nH]c2ccccc12)C(=O)N[C@@H](CCCNC(=N)N)C(=O)N[C@@H](CCCNC(=N)N)C(=O)N[C@@H](Cc1ccccc1)C(=O)N[C@@H](Cc1c[nH]c2ccccc12)C(=O)N[C@@H](CCCNC(=N)N)C(=O)N[C@@H](CCCNC(=N)N)C(N)=O` [LF11-227-C12] (Lauroyl-FWRRFWRR-NH2), the “Reduction of the endotoxin activity in serum vs positive control (in words)” value with LPS from P. aeruginosa is “significant (p < 0.05) reduction”. Moreover, in the series on E. coli (ATCC 11303), the “Minimal Inhibitory Concentration, E. coli, PBS” value was greater than 128 µg/mL. In addition, in the series with S. aureus (ATCC 12600), the “Minimal Inhibitory Concentration, S. aureus, PBS” value was greater than 128 µg/mL. In the series with erythrocyte membranes [1], the “Free Hemoglobin, BLOOD, 8 μg/mL” value is on record as 2.6 ± 1.4 mg/dL; the “Free Hemoglobin, BLOOD, 32 μg/mL” value was found to be 4.3 ± 2.5 mg/dL; the “Free Hemoglobin, BLOOD, 128 μg/mL” value worked out at 2.5 ± 3.6 mg/dL. Besides, in the series on erythrocyte membranes [2], the “Free Hemoglobin, RBC in PBS, 8 μg/mL” value was determined as 11.6 ± 3.2 mg/dL and the “Free Hemoglobin, RBC in PBS, 32 μg/mL” value was 26.3 ± 12.3 mg/dL.
In the case of `CCCCCCCCCCCCCC(=O)N[C@@H](Cc1ccccc1)C(=O)N[C@@H](Cc1c[nH]c2ccccc12)C(=O)N[C@@H](CCCNC(=N)N)C(=O)N[C@@H](CCCNC(=N)N)C(=O)N[C@@H](Cc1ccccc1)C(=O)N[C@@H](Cc1c[nH]c2ccccc12)C(=O)N[C@@H](CCCNC(=N)N)C(=O)N[C@@H](CCCNC(=N)N)C(N)=O` [LF11-227-C14] (Myristoyl-FWRRFWRR-NH2), in the series on LPS from P. aeruginosa (5 ng/mL LPS), the “Reduction of endotoxin activity of P. aeruginosa LPS” value is 37 ± 5%. Besides, the “Reduction of the endotoxin activity in serum vs positive control (in words)” value with LPS from P. aeruginosa is recorded as “significant (p < 0.05) reduction”. Also, the “Minimal Inhibitory Concentration, E. coli, PBS” value in the series on E. coli (ATCC 11303) was greater than 128 µg/mL. The “Minimal Inhibitory Concentration, S. aureus, PBS” value with S. aureus (ATCC 12600) is greater than 128 µg/mL. Moreover, in the series with erythrocyte membranes [1], the “Free Hemoglobin, BLOOD, 8 μg/mL” value is recorded as 3.4 ± 2.1 mg/dL; the “Free Hemoglobin, BLOOD, 32 μg/mL” value was found to be 3.1 ± 0.9 mg/dL; the “Free Hemoglobin, BLOOD, 128 μg/mL” value is recorded as 2.6 ± 3.5 mg/dL. In the series with erythrocyte membranes [2], the “Free Hemoglobin, RBC in PBS, 8 μg/mL” value is given as 18.3 ± 12.8 mg/dL and the “Free Hemoglobin, RBC in PBS, 32 μg/mL” value is 41.9 ± 19.9 mg/dL.
In the case of `CCCCCCCC(=O)N1CCC[C@H]1C(=O)N[C@@H](Cc1ccccc1)C(=O)N[C@@H](Cc1c[nH]c2ccccc12)C(=O)N[C@@H](CCCNC(=N)N)C(=O)N[C@H](C(=O)N[C@@H](CCCNC(=N)N)C(=O)N[C@H](C(=O)N[C@@H](CCCNC(=N)N)C(=O)N[C@@H](CCCNC(=N)N)C(N)=O)[C@@H](C)CC)[C@@H](C)CC` [LF11-322-C8] (Octanoyl-PFWRIRIRR-NH2), the “Minimal Inhibitory Concentration, E. coli, PBS” value in the series on E. coli (ATCC 11303) came to 8 µg/mL. Further, the “Minimal Inhibitory Concentration, S. aureus, PBS” value in the series with S. aureus (ATCC 12600) was 8 µg/mL. In the series with erythrocyte membranes [1], the “Free Hemoglobin, BLOOD, 8 μg/mL” value was 2.2 ± 0.5 mg/dL; the “Free Hemoglobin, BLOOD, 32 μg/mL” value is 9.0 ± 3.8 mg/dL; the “Free Hemoglobin, BLOOD, 128 μg/mL” value is reported as 2.7 ± 3.7 mg/dL. Further, in the series on erythrocyte membranes [2], the “Free Hemoglobin, RBC in PBS, 8 μg/mL” value was 12.9 ± 1.5 mg/dL and the “Free Hemoglobin, RBC in PBS, 32 μg/mL” value is reported as 26.1 ± 2.5 mg/dL. Moreover, the “Peptide concentration that triggers clotting of citrate plasma” value in the series on plasmatic coagulation is no less than 256 µg/mL.
